Values of other authors, collected in US20130243825A1, “COMPOSITIONS AND METHODS FOR THE TREATMENT OF SKIN DISEASES” (priority 2012, published 2013).
Entries after “also recorded” stand apart in the source; their conditions may differ.

Test system: standardized wounds created by sequential tape stripping
Details: applied to a wound for 15 seconds, 24 subjects; Pagnoni et al. 2004

Row | Compound | stinging/burning sensation
1 | CC(C)O [70% isopropyl alcohol, isopropyl alcohol] | stung

Test system: vasoconstriction
Details: seven potency groups, I ultra high to VII least potent; Ference and Last 2009

Row | Compound | potency group by strength in standard vasoconstriction assay
2 | CCC(=O)OCC(=O)[C@@]1(OC(=O)CC)[C@H](C)C[C@H]2[C@H]3[C@H]([C@@H](O)C[C@@]21C)[C@@]1(C)C=CC(=O)C=C1C[C@H]3Cl [Alclometasone dipropionate 0.05%, Alclometasone dipropionate] | Low (VI)
3 | C[C@@H]1C[C@H]2[C@@H]3CCC4=CC(=O)C=C[C@]4(C)[C@@]3(Cl)[C@@H](O)C[C@]2(C)[C@@]1(OC(=O)c1ccco1)C(=O)CCl [Mometasone furoate 0.1%, Mometasone furoate] | Medium (IV and V)
4 | Augmented betamethasone dipropionate | Ultra high (I); also recorded: High (II)
5 | CCC(=O)O[C@]1(C(=O)SCF)[C@H](C)C[C@H]2[C@@H]3C[C@H](F)C4=CC(=O)C=C[C@]4(C)[C@@]3(F)[C@@H](O)C[C@@]21C [Fluticasone propionate 0.005%, Fluticasone propionate] | Medium to high (III)
6 | CCCC(=O)O[C@]1(C(=O)COC(=O)CC)CC[C@H]2[C@@H]3CCC4=CC(=O)CC[C@]4(C)[C@H]3[C@@H](O)C[C@@]21C [Hydrocortisone probutate 0.1%, Hydrocortisone probutate] | Medium (IV and V)
7 | CC1(C)O[C@@H]2C[C@H]3[C@@H]4CCC5=CC(=O)CC[C@]5(C)[C@@]4(F)[C@@H](O)C[C@]3(C)[C@]2(C(=O)CCl)O1 [Halcinonide 0.1%, Halcinonide] | High (II)
8 | C[C@@H]1C[C@H]2[C@@H]3CCC4=CC(=O)C=C[C@]4(C)[C@@]3(F)[C@@H](O)C[C@]2(C)[C@H]1C(=O)CO [Desoximetasone 0.25%, Desoximetasone] | High (II)
9 | CC1(C)O[C@@H]2C[C@H]3[C@@H]4C[C@H](F)C5=CC(=O)C=C[C@]5(C)[C@@]4(F)[C@@H](O)C[C@]3(C)[C@]2(C(=O)CO)O1 [Fluocinolone acetonide 0.025%, Fluocinolone acetonide] | Medium (IV and V)
10 | C[C@@H]1C[C@H]2[C@@H]3CCC4=CC(=O)C=C[C@]4(C)[C@@]3(F)[C@@H](O)C[C@]2(C)[C@H]1C(=O)CO [Desoximetasone 0.05%, Desoximetasone] | Medium (IV and V)
11 | CC1(C)O[C@@H]2C[C@H]3[C@@H]4CCC5=CC(=O)C=C[C@]5(C)[C@H]4[C@@H](O)C[C@]3(C)[C@]2(C(=O)CO)O1 [Desonide 0.05%, Desonide] | Low (VI)
12 | CCC(=O)O[C@]1(C(=O)SCF)[C@H](C)C[C@H]2[C@@H]3C[C@H](F)C4=CC(=O)C=C[C@]4(C)[C@@]3(F)[C@@H](O)C[C@@]21C [Fluticasone propionate 0.05%, Fluticasone propionate] | Medium (IV and V)
13 | CCCCC(=O)O[C@]1(C(=O)CO)CC[C@H]2[C@@H]3CCC4=CC(=O)CC[C@]4(C)[C@H]3[C@@H](O)C[C@@]21C [Hydrocortisone valerate 0.2%, Hydrocortisone valerate] | Medium (IV and V)
14 | CCC(=O)O[C@]1(C(=O)CCl)[C@@H](C)C[C@H]2[C@@H]3CCC4=CC(=O)C=C[C@]4(C)[C@@]3(F)[C@@H](O)C[C@@]21C [Clobetasol propionate 0.05%, Clobetasol propionate] | Ultra high (I)
15 | C[C@]12CCC(=O)C=C1CC[C@@H]1[C@@H]2[C@@H](O)C[C@@]2(C)[C@H]1CC[C@]2(O)C(=O)CO [Hydrocortisone 1%, 2.5%, Hydrocortisone] | Least potent (VII)
16 | CCCC(=O)O[C@]1(C(=O)CO)CC[C@H]2[C@@H]3CCC4=CC(=O)CC[C@]4(C)[C@H]3[C@@H](O)C[C@@]21C [Hydrocortisone butyrate 0.1%, Hydrocortisone butyrate] | Medium (IV and V); also recorded: Low (VI)
17 | CC(=O)OCC(=O)[C@@]12OC(C)(C)O[C@@H]1C[C@H]1[C@@H]3C[C@H](F)C4=CC(=O)C=C[C@]4(C)[C@@]3(F)[C@@H](O)C[C@@]12C [Fluocinonide 0.1%, Fluocinonide] | Ultra high (I)
18 | CCCCC(=O)O[C@]1(C(=O)CO)[C@@H](C)C[C@H]2[C@@H]3CCC4=CC(=O)C=C[C@]4(C)[C@@]3(F)[C@@H](O)C[C@@]21C [Betamethasone valerate 0.1%, Betamethasone valerate] | Medium (IV and V)
19 | CC(=O)OCC(=O)[C@@]12OC(C)(C)O[C@@H]1C[C@H]1[C@@H]3C[C@H](F)C4=CC(=O)C=C[C@]4(C)[C@@]3(F)[C@@H](O)C[C@@]12C [Fluocinonide 0.05%, Fluocinonide] | High (II)
